Patent US20100004267A1, “LIQUID PREPARATION” (ASUBIO PHARMA CO., LTD., priority 2006, published 2010)
Structures can show the parent of a compound that is named as a salt. Blank lines part the entries; values can stand above or below the molecule they belong to.

Assays:
[1] = Likelihood of formation of insoluble aggregate with free base among counter ions; format: physicochemical; settings: estimated from the inventors' examinations
[2] = Examination of antioxidant: storage at 60° C. (Test example 3); format: physicochemical
Procedure: In this examination, hydrochloride of the compound of formula (I) was used instead of SUN N8075. Approximately 400 mg of the hydrochloride of compound of formula (I) were precisely weighed and water was added to make the volume precisely 200 mL, which was provided as an original drug aqueous solution.
Approximately 400 mg of each antioxidant shown in Table 3 below were precisely weighed and dissolved by adding 20 mL of water. As to butylhydroxy anisole, 10.7 mg was precisely weighed and dissolved in 100 mL of water.
15 mL of each antioxidant solution was mixed with 15 mL of solution of drug substance to prepare a stock sample (in the sample, the concentration of the hydrochloride compound of formula (I) corresponds to 1 mg/mL and the concentration of antioxidant corresponds to 10 mg/mL).
After dispensing each stock sample into 15 brown glass ampules, the ampules were sealed and stored at 60° C.
As a control sample, 15 mL of solution of drug substance added with 15 mL of water were stored in the same condition.
The remaining three ampules for each sample solution were used for measurement at the start of tests.
Each prepared sample was sampled in time series. 1 mL of sample solution was precisely measured, change in appearance and solution state of the sample were observed, and then added with methanol to make the volume precisely 10 mL. For this solution, residual percentage of the hydrochloride of compound of formula (I) was calculated by HPLC method. Furthermore, the pH value of the sample solution remaining after completion of test was measured.

[3] = Butyl hydroxy anisole, at start
[4] = L-Cysteine HCl monohydrate 10 mg/mL, 1 day
[5] = L-Cysteine HCl monohydrate 10 mg/mL, 7 days
[6] = L-Cysteine HCl monohydrate 10 mg/mL, 21 days
[7] = L-Cysteine HCl monohydrate 10 mg/mL, at start
[8] = Sodium bisulfite 10 mg/mL, 1 day
[9] = Sodium bisulfite 10 mg/mL, 7 days
[10] = Sodium bisulfite 10 mg/mL, 21 days
[11] = Sodium bisulfite 10 mg/mL, at start
[12] = Sodium edetate 10 mg/mL, 7 days
[13] = Sodium edetate 10 mg/mL, 21 days
[14] = Sodium edetate 10 mg/mL, at start
[15] = Sodium pyrosulfite 10 mg/mL, 1 day
[16] = Sodium pyrosulfite 10 mg/mL, 7 days
[17] = Sodium pyrosulfite 10 mg/mL, 21 days
[18] = Sodium pyrosulfite 10 mg/mL, at start
[19] = α-Thioglycerol 10 mg/mL, 7 days
[20] = α-Thioglycerol 10 mg/mL, 21 days
[21] = α-Thioglycerol 10 mg/mL, at start

Compound: Cc1cc(OC[C@@H](O)CN2CCN(c3ccc(Cc4ccc(F)cc4)cc3)CC2)c(C)c(C)c1N [compound represented by the formula (I), (2S)-1-(4-amino-2,3,5-trimethylphenoxy)-3-{4-[4-(4-fluorobenzyl)phenyl]-1-piperazinyl}-2-propanol]
Order of likelihood of formation of insoluble aggregate with free base among various counter ions [1]: sulfate ion>sulfite (or bisulfite ion)>>phosphate ion (or hydrogen phosphate ion, dihydrogen phosphate ion)>acetate ion>chloride ion>methane sulfonate ion

Appearance ([2]; Butyl hydroxy anisole (10.7 mg in 100 mL stock), at start): colorless and clear
Appearance ([2]; Butyl hydroxy anisole, 1 day): colorless and clear
Purity ([2]; Butyl hydroxy anisole, 1 day): 96.8%
Residual degree ([2]; Butyl hydroxy anisole, 1 day): 99.2%
pH ([2]; Butyl hydroxy anisole, 1 day): 2.8
Appearance ([2]; Butyl hydroxy anisole, 7 days): colorless and clear
Purity ([2]; Butyl hydroxy anisole, 7 days): 80.6%
Residual degree ([2]; Butyl hydroxy anisole, 7 days): 80.3%
pH ([2]; Butyl hydroxy anisole, 7 days): 2.8
Appearance ([2]; Butyl hydroxy anisole, 21 days): Brown precipitates
Purity ([2]; Butyl hydroxy anisole, 21 days): 53.5%
Residual degree ([2]; Butyl hydroxy anisole, 21 days): 41.2%
pH ([2]; Butyl hydroxy anisole, 21 days): 2.8
Purity [2, 3]: 100%
Residual degree [2, 3]: 100%
pH [2, 3]: 2.8
Appearance ([2]; Citric acid 10 mg/mL, 1 day): colorless and clear
Purity ([2]; Citric acid 10 mg/mL, 1 day): 99.2%
Residual degree ([2]; Citric acid 10 mg/mL, 1 day): 98.0%
pH ([2]; Citric acid 10 mg/mL, 1 day): 2.2
Appearance ([2]; Citric acid 10 mg/mL, 7 days): colorless and clear
Purity ([2]; Citric acid 10 mg/mL, 7 days): 88.6%
Residual degree ([2]; Citric acid 10 mg/mL, 7 days): 89.8%
pH ([2]; Citric acid 10 mg/mL, 7 days): 2.2
Appearance ([2]; Citric acid 10 mg/mL, 21 days): colorless and clear
Purity ([2]; Citric acid 10 mg/mL, 21 days): 63.6%
Residual degree ([2]; Citric acid 10 mg/mL, 21 days): 57.3%
pH ([2]; Citric acid 10 mg/mL, 21 days): 2.2
Appearance ([2]; Citric acid 10 mg/mL, at start): colorless and clear
Purity ([2]; Citric acid 10 mg/mL, at start): 100%
Residual degree ([2]; Citric acid 10 mg/mL, at start): 100%
pH ([2]; Citric acid 10 mg/mL, at start): 2.1
Appearance [2, 4]: colorless and clear
Purity [2, 4]: 100%
Residual degree [2, 4]: 97.9%
pH [2, 4]: 1.7
Appearance [2, 5]: colorless and clear
Purity [2, 5]: 99.7%
Residual degree [2, 5]: 100.6%
pH [2, 5]: 1.7
Appearance [2, 6]: colorless and clear
Purity [2, 6]: 99.6%
Residual degree [2, 6]: 94.0%
pH [2, 6]: 1.7
Appearance [2, 7]: colorless and clear
Purity [2, 7]: 100%
Residual degree [2, 7]: 100%
pH [2, 7]: 1.7
Appearance ([2]; No additive, 1 day): colorless and clear
Purity ([2]; No additive, 1 day): 98.4%
Residual degree ([2]; No additive, 1 day): 98.7%
pH ([2]; No additive, 1 day): 2.8
Appearance ([2]; No additive, 7 days): colorless and clear
Purity ([2]; No additive, 7 days): 82.5%
Residual degree ([2]; No additive, 7 days): 84.4%
pH ([2]; No additive, 7 days): 3.0
Appearance ([2]; No additive, 21 days): colorless and clear
Purity ([2]; No additive, 21 days): 51.2%
Residual degree ([2]; No additive, 21 days): 43.1%
pH ([2]; No additive, 21 days): 2.9
Appearance ([2]; No additive, at start): colorless and clear
Purity ([2]; No additive, at start): 100%
Residual degree ([2]; No additive, at start): 100%
pH ([2]; No additive, at start): 2.8
Appearance [2, 8]: colorless and clear
Purity [2, 8]: 98.5%
Residual degree [2, 8]: 99.9%
pH [2, 8]: 3.2
Appearance [2, 9]: colorless and clear
Purity [2, 9]: 98.3%
Residual degree [2, 9]: 97.3%
pH [2, 9]: 2.8
Appearance [2, 10]: colorless and clear
Purity [2, 10]: 98.4%
Residual degree [2, 10]: 91.2%
pH [2, 10]: 2.8
Appearance [2, 11]: colorless and clear
Purity [2, 11]: 97.2%
Residual degree [2, 11]: 100%
pH [2, 11]: 3.5
Appearance ([2]; Sodium edetate 10 mg/mL, 1 day): colorless and clear
Purity ([2]; Sodium edetate 10 mg/mL, 1 day): 97.9%
Residual degree ([2]; Sodium edetate 10 mg/mL, 1 day): 94.1%
pH ([2]; Sodium edetate 10 mg/mL, 1 day): 3.8
Appearance [2, 12]: colorless and clear
Purity [2, 12]: 81.2%
Residual degree [2, 12]: 68.5%
pH [2, 12]: 4.1
Appearance [2, 13]: colorless and clear
Purity [2, 13]: 53.8%
Residual degree [2, 13]: 31.9%
pH [2, 13]: 4.2
Appearance [2, 14]: colorless and clear
Purity [2, 14]: 100%
Residual degree [2, 14]: 100%
pH [2, 14]: 4.0
Appearance [2, 15]: colorless and clear
Purity [2, 15]: 98.2%
Residual degree [2, 15]: 102.4%
pH [2, 15]: 3.1
Appearance [2, 16]: colorless and clear
Purity [2, 16]: 97.3%
Residual degree [2, 16]: 97.2%
pH [2, 16]: 2.9
Appearance [2, 17]: colorless and clear
Purity [2, 17]: 97.6%
Residual degree [2, 17]: 89.8%
pH [2, 17]: 2.7
Appearance [2, 18]: colorless and clear
Purity [2, 18]: 94.4%
Residual degree [2, 18]: 100%
pH [2, 18]: 3.6
Appearance ([2]; α-Thioglycerol 10 mg/mL, 1 day): colorless and clear
Purity ([2]; α-Thioglycerol 10 mg/mL, 1 day): 100%
Residual degree ([2]; α-Thioglycerol 10 mg/mL, 1 day): 97.5%
pH ([2]; α-Thioglycerol 10 mg/mL, 1 day): 2.8
Appearance [2, 19]: colorless and clear
Purity [2, 19]: 99.2%
Residual degree [2, 19]: 97.1%
pH [2, 19]: 2.8
Appearance [2, 20]: colorless and clear
Purity [2, 20]: 96.8%
Residual degree [2, 20]: 89.0%
pH [2, 20]: 2.8
Appearance [2, 21]: colorless and clear
Purity [2, 21]: 100%
Residual degree [2, 21]: 100%
pH [2, 21]: 2.7
Compound: Cc1cc(OC[C@@H](O)CN2CCN(c3ccc(Cc4ccc(F)cc4)cc3)CC2)c(C)c(C)c1N [hydrochloride of compound of formula (I)]
